{"source": "patent US20050014811A1", "about": "“Substituted benzimidazole compounds and their use for the treatment of cancer” (Aventis Pharma S.A., priority 2001, published 2005)", "key": {"[1]": {"biological_target": "CDK4/CyclinD1 (Homo sapiens, UniProt P11802)", "sequence (P11802 whole entry, species assumed)": "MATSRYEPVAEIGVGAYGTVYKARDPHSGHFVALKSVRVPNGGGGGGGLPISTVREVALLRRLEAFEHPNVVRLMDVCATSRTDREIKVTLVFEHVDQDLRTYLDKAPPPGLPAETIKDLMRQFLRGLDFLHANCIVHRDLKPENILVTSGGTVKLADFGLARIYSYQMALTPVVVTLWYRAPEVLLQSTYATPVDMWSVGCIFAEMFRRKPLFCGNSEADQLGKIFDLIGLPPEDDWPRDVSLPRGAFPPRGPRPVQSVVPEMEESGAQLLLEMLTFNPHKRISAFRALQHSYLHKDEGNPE", "sequence (P24385 whole entry partner, species assumed)": "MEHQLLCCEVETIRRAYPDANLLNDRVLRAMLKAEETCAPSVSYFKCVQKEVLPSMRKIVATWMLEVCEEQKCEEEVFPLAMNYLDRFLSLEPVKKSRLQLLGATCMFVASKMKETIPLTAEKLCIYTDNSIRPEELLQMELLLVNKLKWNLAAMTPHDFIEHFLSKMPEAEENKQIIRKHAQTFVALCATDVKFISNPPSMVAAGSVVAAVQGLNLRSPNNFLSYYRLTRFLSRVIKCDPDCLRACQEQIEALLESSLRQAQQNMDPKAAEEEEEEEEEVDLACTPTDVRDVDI", "assay": "CDK4/CyclinD1 Flashplate assay, 96-well format, biotinylated-Rb peptide substrate", "assay_type": "biochemical", "outline": "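Biotinylated Rb peptide bound to streptavidin Flashplate; CDK4/CyclinD1 (70 ng/well) preincubated 30 min on ice with compound at 10, 3, 1, 0.3 and 0.1 μM final. Reaction with 1 μM cold ATP plus 33P-ATP for 45 min at RT; incorporated 33P counted, duplicates.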"}, "[2]": {"biological_target": "CDK2/CyclinE (Homo sapiens, UniProt P24941)", "assay": "CDK2/CyclinE Flashplate assay, 96-well format, biotinylated-Rb peptide substrate", "assay_type": "biochemical", "outline": "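Biotinylated Rb peptide was captured on streptavidin Flashplates, and CDK2/CyclinE (200 ng/well) was preincubated 30 min on ice with inhibitor at 10, 3, 1, 0.3 or 0.1 μM final. Reactions ran 45 min at RT with 1 μM ATP plus 1 μCi ^33P-ATP. After washing, incorporated ^33P was counted, in duplicate.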"}}, "data": [{"smiles": "COC(=O)Nc1nc2cc(OS(=O)(=O)c3ccc(NCCO)cc3)ccc2[nH]1", "note": "[Example 1, Methyl-5-(4-[2-hydroxyethyl]aminophenylsulfonyloxy) benzimidazole-2-carbamate]", "values": [{"measurement": "melting point", "result": 170, "unit": "°C"}, {"measurement": "IC50", "setting": "[1]", "result": 1500, "unit": "nM"}, {"measurement": "IC50", "setting": "[2]", "result": 600, "unit": "nM"}]}, {"smiles": "COC(=O)Nc1nc2cc(OS(=O)(=O)c3ccc(NCCCCO)cc3)ccc2[nH]1", "note": "[Example 2, Methyl-5-(4-[4-hydroxbutyl]aminophenylsulfonyloxy) benzimidazole-2-carbamate]", "values": [{"measurement": "melting point", "result": 180, "unit": "°C"}, {"measurement": "IC50", "setting": "[1]", "result": 2000, "unit": "nM"}, {"measurement": "IC50", "setting": "[2]", "result": 700, "unit": "nM"}]}, {"smiles": "COCCNc1ccc(S(=O)(=O)Oc2ccc3[nH]c(NC(=O)OC)nc3c2)cc1", "note": "[Example 3, Methyl-5-(4-[2-methoxyethyl]aminophenylsulfonyloxy) benzimidazole-2-carbamate]", "values": [{"measurement": "melting point", "result": 155, "unit": "°C"}, {"measurement": "IC50", "setting": "[1]", "result": 2400, "unit": "nM"}, {"measurement": "IC50", "setting": "[2]", "result": 500, "unit": "nM"}]}, {"smiles": "COC(=O)Nc1nc2cc(OS(=O)(=O)c3ccc(-n4ccnc4)cc3)ccc2[nH]1", "note": "[Example 4, Methyl-5-(4-[1-imidazolyl]-phenylsulfonyloxy) benzimidazole-2-carbamate]", "values": [{"measurement": "melting point", "result": 258, "unit": "°C"}, {"measurement": "IC50", "setting": "[1]", "result": 6300, "unit": "nM"}, {"measurement": "IC50", "setting": "[2]", "result": 1500, "unit": "nM"}]}, {"smiles": "CN1CCN(CCCNC(=O)Nc2nc3cc(OS(=O)(=O)c4ccc(NCC5CCCO5)cc4)ccc3[nH]2)CC1", "note": "(centres unmarked) [Example 59-m, 4-[(Tetrahydro-furan-2-ylmethyl)-amino]-benzenesulfonic acid 2-{3-[3-(4-methyl-piperazin-1-yl)-propyl]-ureido}-1H-benzoimidazol-5-yl ester]", "values": [{"measurement": "IC50", "setting": "[1]", "result": 1200, "unit": "nM"}, {"measurement": "IC50", "setting": "[2]", "result": 30, "unit": "nM"}]}, {"smiles": "O=C(NCCS(=O)(=O)O)Nc1nc2cc(OS(=O)(=O)c3ccc(NCC4CCCO4)cc3)ccc2[nH]1", "note": "(centres unmarked) [Example 59-n, 4-[(Tetrahydro-furan-2-ylmethyl)-amino]-benzenesulfonic acid 2-[3-(2-sulfo-ethyl)-ureido]-1H-benzoimidazol-5-yl ester]", "values": [{"measurement": "IC50", "setting": "[1]", "result": 130, "unit": "nM"}, {"measurement": "IC50", "setting": "[2]", "result": 36, "unit": "nM"}]}, {"smiles": "O=C(Nc1nc2cc(OS(=O)(=O)c3ccc(NCC4CCCO4)cc3)ccc2[nH]1)NC1CCC1", "note": "(centres unmarked) [Example 59-o, 4-[(Tetrahydro-furan-2-ylmethyl)-amino]-benzenesulfonic acid 2-(3-cyclobutyl-ureido)-1H-benzoimidazol-5-yl ester]", "values": [{"measurement": "IC50", "setting": "[1]", "result": 800, "unit": "nM"}, {"measurement": "IC50", "setting": "[2]", "result": 40, "unit": "nM"}]}, {"smiles": "O=C(NCCCN1CCCC1=O)Nc1nc2cc(OS(=O)(=O)c3ccc(NCC4CCCO4)cc3)ccc2[nH]1", "note": "(centres unmarked) [Example 59-p, 4-[(Tetrahydro-furan-2-ylmethyl)-amino]-benzenesulfonic acid 2-{3-[3-(2-oxo-pyrrolidin-1-yl)-propyl]-ureido}-1H-benzoimidazol-5-yl ester]", "values": [{"measurement": "IC50", "setting": "[1]", "result": 180, "unit": "nM"}, {"measurement": "IC50", "setting": "[2]", "result": 17, "unit": "nM"}]}, {"smiles": "O=C(NCCNCCO)Nc1nc2cc(OS(=O)(=O)c3ccc(NCC4CCCO4)cc3)ccc2[nH]1", "note": "(centres unmarked) [Example 59-q, 4-[(Tetrahydro-furan-2-ylmethyl)-amino]-benzenesulfonic acid 2-{3-[2-(2-hydroxy-ethylamino)-ethyl]-ureido}-1H-benzoimidazol-5-yl ester]", "values": [{"measurement": "IC50", "setting": "[1]", "result": 750, "unit": "nM"}, {"measurement": "IC50", "setting": "[2]", "result": 110, "unit": "nM"}]}, {"smiles": "O=C(NCCN1CCCCC1)Nc1nc2cc(OS(=O)(=O)c3ccc(NCC4CCCO4)cc3)ccc2[nH]1", "note": "(centres unmarked) [Example 59-r, 4-[(Tetrahydro-furan-2-ylmethyl)-amino]-benzenesulfonic acid 2-[3-(2-piperidin-1-yl-ethyl)-ureido]-1H-benzoimidazol-5-yl ester]", "values": [{"measurement": "IC50", "setting": "[1]", "result": 1800, "unit": "nM"}, {"measurement": "IC50", "setting": "[2]", "result": 220, "unit": "nM"}]}, {"smiles": "COC(=O)Nc1nc2cc(OS(=O)(=O)c3cccs3)ccc2[nH]1", "note": "[Example 62-b, Thiophene-2-sulfonic acid 2-methoxycarbonylamino-1H-benzoimidazol-5-yl ester]", "values": [{"measurement": "IC50", "setting": "[1]", "result": 440, "unit": "nM"}, {"measurement": "IC50", "setting": "[2]", "result": 200, "unit": "nM"}]}, {"smiles": "COC(=O)Nc1nc2cc(OS(=O)(=O)c3ccc(-c4cc(C(F)(F)F)n(C)n4)s3)ccc2[nH]1", "note": "[Example 62-e, 5-(1-Methyl-5-trifluoromethyl-1H-pyrazol-3-yl)-thiophene-2-sulfonic acid 2-methoxycarbonylamino-1H-benzoimidazol-5-yl ester]", "values": [{"measurement": "IC50", "setting": "[1]", "result": 4600, "unit": "nM"}, {"measurement": "IC50", "setting": "[2]", "result": 1000, "unit": "nM"}]}, {"smiles": "COC(=O)Nc1nc2cc(OS(=O)(=O)c3c(F)cccc3F)ccc2[nH]1", "note": "[Example 62-h, 2,6-Difluoro-benzenesulfonic acid 2-methoxycarbonylamino-1H-benzoimidazol-5-yl ester]", "values": [{"measurement": "IC50", "setting": "[1]", "result": 800, "unit": "nM"}, {"measurement": "IC50", "setting": "[2]", "result": 70, "unit": "nM"}]}, {"smiles": "COC(=O)Nc1nc2cc(OS(=O)(=O)c3cccc(OC)c3)ccc2[nH]1", "note": "[Example 62-i, 3-Methoxy-benzenesulfonic acid 2-methoxycarbonylamino-1H-benzoimidazol-5-yl ester]", "values": [{"measurement": "IC50", "setting": "[1]", "result": 1500, "unit": "nM"}, {"measurement": "IC50", "setting": "[2]", "result": 1000, "unit": "nM"}]}, {"smiles": "COc1ccc(Nc2nc3cc(OS(=O)(=O)c4ccc(NC5CCCC5)cc4)ccc3[nH]2)cc1OC", "note": "[Example 69, 4-cyclopentylamino-benzenesulfonic acid 2-(3,4-dimethoxy-phenylamino)-1H-benzoimidazol-5-yl ester]", "values": [{"measurement": "IC50", "setting": "[1]", "result": 840, "unit": "nM"}, {"measurement": "IC50", "setting": "[2]", "result": 130, "unit": "nM"}]}, {"smiles": "O=S(=O)(Oc1ccc2[nH]c(Nc3ccc(N4CCOCC4)cc3)nc2c1)c1ccc(NC2CCCC2)cc1", "note": "[Example 70-b, 4-Cyclopentylamino-benzenesulfonic acid 2-(4-morpholin-4-yl-phenylamino)-1H-benzoimidazol-5-yl ester]", "values": [{"measurement": "IC50", "setting": "[1]", "result": 670, "unit": "nM"}, {"measurement": "IC50", "setting": "[2]", "result": 3000, "unit": "nM"}]}, {"smiles": "Cc1cc(C)cc(Nc2nc3cc(OS(=O)(=O)c4ccc(NC5CCCC5)cc4)ccc3[nH]2)c1", "note": "[Example 70-c, 4-Cyclopentylamino-benzenesulfonic acid 2-(3,5-dimethyl-phenylamino)-1H-benzoimidazol-5-yl ester]", "values": [{"measurement": "IC50", "setting": "[1]", "result": 2000, "unit": "nM"}, {"measurement": "IC50", "setting": "[2]", "result": 800, "unit": "nM"}]}, {"smiles": "COc1ccc(Nc2nc3cc(OS(=O)(=O)c4ccc(NC5CCCC5)cc4)ccc3[nH]2)cc1", "note": "[Example 70-d, 4-Cyclopentylamino-benzenesulfonic acid 2-(4-methoxy-phenylamino)-1H-benzoimidazol-5-yl ester]", "values": [{"measurement": "IC50", "setting": "[1]", "result": 650, "unit": "nM"}, {"measurement": "IC50", "setting": "[2]", "result": 300, "unit": "nM"}]}, {"smiles": "CN(C)c1ccc(Nc2nc3cc(OS(=O)(=O)c4ccc(NC5CCCC5)cc4)ccc3[nH]2)cc1", "note": "[Example 70-e, 4-Cyclopentylamino-benzenesulfonic acid 2-(4-dimethylamino-phenylamino)-1H-benzoimidazol-5-yl ester]", "values": [{"measurement": "IC50", "setting": "[1]", "result": 500, "unit": "nM"}, {"measurement": "IC50", "setting": "[2]", "result": 800, "unit": "nM"}]}, {"smiles": "CN1CCN(c2ccc(Nc3nc4cc(OS(=O)(=O)c5ccc(NC6CCCC6)cc5)ccc4[nH]3)cc2)CC1", "note": "[Example 70-h]", "values": [{"measurement": "IC50", "setting": "[1]", "result": 140, "unit": "nM"}, {"measurement": "IC50", "setting": "[2]", "result": 250, "unit": "nM"}]}]}
